Source: the supplement of paper PMC10307832

Legend:
Assay in all cases: relative viability (nuclei count vs DMSO), 5 days (fraction); higher = more cells survive
[1] = test system: ABC-1
Outline: (§1)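 The day after seeding in 1536-well plates, lung cancer cell lines were treated by pin tool with a single drug, or with a fixed anchor-drug dose together with five library-drug doses (not always all listed) in √10 steps. After 5 days, a combined fix-and-stain solution (final 0.05% Triton X-100, 1% formaldehyde, 1 ug/ml Hoechst) was added. Nuclei counted on 4× images gave relative viability as treated counts over vehicle counts, reported as the median of duplicate plates.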

[2] = test system: HOP-62
Outline: as §1

[3] = test system: NCI-H1734
Outline: as §1

[4] = test system: NCI-H1437
Outline: as §1

[5] = test system: NCI-H3122
Outline: as §1

[6] = test system: NCI-H727
Outline: as §1

[7] = test system: NCI-H1755
Outline: as §1

[8] = test system: NCI-H2347
Outline: as §1

[9] = test system: EMC-BAC-2
Outline: as §1

[10] = test system: RERF-LC-KJ
Outline: as §1

[11] = test system: LK-2
Outline: as §1

[12] = test system: HCC-366
Outline: as §1

[13] = test system: PC-3 [JPC-3]
Outline: as §1

[14] = test system: NCI-H441
Outline: as §1

[15] = test system: CAL-12T
Outline: as §1

[16] = test system: NCI-H596
Outline: as §1

[17] = test system: NCI-H1651
Outline: as §1

[18] = test system: HARA
Outline: as §1

## CN1CCN(CCOc2cc(OC3CCOCC3)c3c(Nc4c(Cl)ccc5c4OCO5)ncnc3c2)CC1 [Saracatinib] + NC(=O)Nc1cc(-c2cccc(F)c2)sc1C(=O)N[C@H]1CCCNC1 [AZD7762] (partner 0.2 µM)
[1]; first compound 0.02 µM
  relative viability: 0.934
[1]; first compound 0.2 µM
  relative viability: 0.825
[1]; first compound 0.6325 µM
  relative viability: 0.908
[1]; first compound 2 µM
  relative viability: 0.695
[2]; first compound 0.02 µM
  relative viability: 0.945
[2]; first compound 0.2 µM
  relative viability: 0.614
[2]; first compound 0.6325 µM
  relative viability: 0.707
[2]; first compound 2 µM
  relative viability: 0.905
[3]; first compound 0.02 µM
  relative viability: 0.537
[3]; first compound 0.6325 µM
  relative viability: 0.622
[3]; first compound 2 µM
  relative viability: 0.566
[4]; first compound 0.02 µM
  relative viability: 1.12
[4]; first compound 0.2 µM
  relative viability: 1.17
[4]; first compound 0.6325 µM
  relative viability: 1.17
[4]; first compound 2 µM
  relative viability: 1.07
[5]; first compound 0.02 µM
  relative viability: 0.97
[5]; first compound 0.2 µM
  relative viability: 0.922
[5]; first compound 0.6325 µM
  relative viability: 0.889
[5]; first compound 2 µM
  relative viability: 0.698
[6]; first compound 0.02 µM
  relative viability: 0.683
[6]; first compound 0.2 µM
  relative viability: 0.522
[6]; first compound 0.6325 µM
  relative viability: 0.616
[6]; first compound 2 µM
  relative viability: 0.401
[7]; first compound 0.02 µM
  relative viability: 0.438
[7]; first compound 0.2 µM
  relative viability: 0.41
[7]; first compound 0.6325 µM
  relative viability: 0.465
[7]; first compound 2 µM
  relative viability: 0.372
[8]; first compound 0.02 µM
  relative viability: 0.828
[8]; first compound 0.2 µM
  relative viability: 0.663
[8]; first compound 0.6325 µM
  relative viability: 0.623
[8]; first compound 2 µM
  relative viability: 0.657
[9]; first compound 0.02 µM
  relative viability: 1.12
[9]; first compound 0.2 µM
  relative viability: 1.09
[9]; first compound 0.6325 µM
  relative viability: 1.09
[9]; first compound 2 µM
  relative viability: 0.946
[10]; first compound 0.02 µM
  relative viability: 1.13
[10]; first compound 0.2 µM
  relative viability: 0.971
[10]; first compound 2 µM
  relative viability: 1
[11]; first compound 0.02 µM
  relative viability: 0.391
[11]; first compound 0.2 µM
  relative viability: 0.219
[11]; first compound 0.6325 µM
  relative viability: 0.262
[11]; first compound 2 µM
  relative viability: 0.133
[12]; first compound 0.02 µM
  relative viability: 0.215
[12]; first compound 0.2 µM
  relative viability: 0.0547
[12]; first compound 0.6325 µM
  relative viability: 0.216
[12]; first compound 2 µM
  relative viability: 0.139
[13]; first compound 0.02 µM
  relative viability: 0.859
[13]; first compound 0.2 µM
  relative viability: 0.638
[13]; first compound 0.6325 µM
  relative viability: 0.573
[13]; first compound 2 µM
  relative viability: 0.448
[14]; first compound 0.02 µM
  relative viability: 1.06
[14]; first compound 0.2 µM
  relative viability: 1.16
[14]; first compound 0.6325 µM
  relative viability: 1.2
[14]; first compound 2 µM
  relative viability: 1.03
[15]; first compound 0.02 µM
  relative viability: 0.612
[15]; first compound 0.2 µM
  relative viability: 0.6
[15]; first compound 0.6325 µM
  relative viability: 0.662
[15]; first compound 2 µM
  relative viability: 0.699
[16]; first compound 0.02 µM
  relative viability: 1.12
[16]; first compound 0.2 µM
  relative viability: 1.05
[16]; first compound 0.6325 µM
  relative viability: 1.14
[16]; first compound 2 µM
  relative viability: 0.852
[17]; first compound 0.02 µM
  relative viability: 0.549
[17]; first compound 0.2 µM
  relative viability: 0.359
[17]; first compound 0.6325 µM
  relative viability: 0.514
[17]; first compound 2 µM
  relative viability: 0.436
[18]; first compound 0.02 µM
  relative viability: 0.413
[18]; first compound 0.2 µM
  relative viability: 0.345
[18]; first compound 0.6325 µM
  relative viability: 0.247
[18]; first compound 2 µM
  relative viability: 0.355

## Cc1cn(-c2cc(NC(=O)c3ccc(C)c(Nc4nccc(-c5cccnc5)n4)c3)cc(C(F)(F)F)c2)cn1 [Nilotinib] + NC(=O)Nc1cc(-c2cccc(F)c2)sc1C(=O)N[C@H]1CCCNC1 [AZD7762] (partner 0.2 µM)
[1]; first compound 0.001 µM
  relative viability: 0.667
[1]; first compound 0.003162 µM
  relative viability: 0.73
[1]; first compound 0.01 µM
  relative viability: 0.803
[1]; first compound 0.03162 µM
  relative viability: 0.787
[1]; first compound 0.1 µM
  relative viability: 0.387
[2]; first compound 0.001 µM
  relative viability: 0.57
[2]; first compound 0.003162 µM
  relative viability: 0.549
[2]; first compound 0.01 µM
  relative viability: 0.595
[2]; first compound 0.03162 µM
  relative viability: 0.271
[3]; first compound 0.001 µM
  relative viability: 0.498
[3]; first compound 0.003162 µM
  relative viability: 0.617
[3]; first compound 0.01 µM
  relative viability: 0.558
[3]; first compound 0.03162 µM
  relative viability: 0.387
[3]; first compound 0.1 µM
  relative viability: 0.219
[4]; first compound 0.001 µM
  relative viability: 1.16
[4]; first compound 0.003162 µM
  relative viability: 0.888
[4]; first compound 0.01 µM
  relative viability: 1.12
[4]; first compound 0.03162 µM
  relative viability: 0.899
[4]; first compound 0.1 µM
  relative viability: 1.1
[5]; first compound 0.001 µM
  relative viability: 0.965
[5]; first compound 0.003162 µM
  relative viability: 1.24
[5]; first compound 0.01 µM
  relative viability: 1.37
[5]; first compound 0.03162 µM
  relative viability: 0.967
[5]; first compound 0.1 µM
  relative viability: 0.382
[6]; first compound 0.001 µM
  relative viability: 0.574
[6]; first compound 0.003162 µM
  relative viability: 0.528
[6]; first compound 0.01 µM
  relative viability: 0.456
[6]; first compound 0.03162 µM
  relative viability: 0.573
[6]; first compound 0.1 µM
  relative viability: 0.58
[7]; first compound 0.001 µM
  relative viability: 0.412
[7]; first compound 0.003162 µM
  relative viability: 0.499
[7]; first compound 0.01 µM
  relative viability: 0.399
[7]; first compound 0.03162 µM
  relative viability: 0.352
[7]; first compound 0.1 µM
  relative viability: 0.4
[8]; first compound 0.001 µM
  relative viability: 0.691
[8]; first compound 0.003162 µM
  relative viability: 0.597
[8]; first compound 0.01 µM
  relative viability: 0.748
[8]; first compound 0.03162 µM
  relative viability: 0.567
[8]; first compound 0.1 µM
  relative viability: 0.596
[9]; first compound 0.001 µM
  relative viability: 1.05
[9]; first compound 0.003162 µM
  relative viability: 1.02
[9]; first compound 0.01 µM
  relative viability: 1.14
[9]; first compound 0.03162 µM
  relative viability: 1.02
[9]; first compound 0.1 µM
  relative viability: 1.03
[10]; first compound 0.001 µM
  relative viability: 0.834
[10]; first compound 0.003162 µM
  relative viability: 1.02
[10]; first compound 0.01 µM
  relative viability: 1.16
[10]; first compound 0.03162 µM
  relative viability: 0.598
[10]; first compound 0.1 µM
  relative viability: 0.427
[11]; first compound 0.001 µM
  relative viability: 0.349
[11]; first compound 0.003162 µM
  relative viability: 0.447
[11]; first compound 0.01 µM
  relative viability: 0.47
[11]; first compound 0.03162 µM
  relative viability: 0.382
[11]; first compound 0.1 µM
  relative viability: 0.514
[12]; first compound 0.001 µM
  relative viability: 0.18
[12]; first compound 0.003162 µM
  relative viability: 0.231
[12]; first compound 0.01 µM
  relative viability: 0.264
[12]; first compound 0.03162 µM
  relative viability: 0.204
[12]; first compound 0.1 µM
  relative viability: 0.115
[13]; first compound 0.001 µM
  relative viability: 0.8
[13]; first compound 0.01 µM
  relative viability: 0.737
[13]; first compound 0.03162 µM
  relative viability: 0.749
[13]; first compound 0.1 µM
  relative viability: 0.527
[14]; first compound 0.001 µM
  relative viability: 1.08
[14]; first compound 0.003162 µM
  relative viability: 1.21
[14]; first compound 0.01 µM
  relative viability: 1.19
[14]; first compound 0.03162 µM
  relative viability: 0.714
[14]; first compound 0.1 µM
  relative viability: 0.565
[15]; first compound 0.001 µM
  relative viability: 0.607
[15]; first compound 0.003162 µM
  relative viability: 0.423
[15]; first compound 0.01 µM
  relative viability: 0.631
[15]; first compound 0.03162 µM
  relative viability: 0.539
[15]; first compound 0.1 µM
  relative viability: 0.605
[16]; first compound 0.001 µM
  relative viability: 1.11
[16]; first compound 0.003162 µM
  relative viability: 1.02
[16]; first compound 0.01 µM
  relative viability: 1.11
[16]; first compound 0.03162 µM
  relative viability: 1.13
[16]; first compound 0.1 µM
  relative viability: 1.01
[17]; first compound 0.001 µM
  relative viability: 0.444
[17]; first compound 0.003162 µM
  relative viability: 0.394
[17]; first compound 0.01 µM
  relative viability: 0.572
[17]; first compound 0.03162 µM
  relative viability: 0.401
[17]; first compound 0.1 µM
  relative viability: 0.239
[18]; first compound 0.001 µM
  relative viability: 0.329
[18]; first compound 0.003162 µM
  relative viability: 0.208
[18]; first compound 0.01 µM
  relative viability: 0.536
[18]; first compound 0.03162 µM
  relative viability: 0.197
[18]; first compound 0.1 µM
  relative viability: 0.245
